Laboratory results: the NIST ThermoML archive (doi:10.1021/je0340755)

Experiment: xn = mol fraction of the nth substance listed
Conditions: 101.3 kPa, Liquid; for viscosity: Capillary tube (Ostwald / Ubbelohde) method

OCCCO [propan-1,3-diol] + O
Conditions | mass density, 318.15 K [kg/m3] | mass density, 328.15 K [kg/m3] | mass density, 338.15 K [kg/m3] | speed of sound, 318.15 K [m/s] | speed of sound, 328.15 K [m/s] | speed of sound, 338.15 K [m/s] | viscosity, 328.15 K [mPa·s] | viscosity, 338.15 K [mPa·s]
x2 = 0.0622 | – | 1031.1 | 1024.56 | – | 1585.1 | 1565.1 | 10.49 | 7.386
x2 = 0.1496 | – | 1031.18 | 1024.59 | – | 1591.1 | 1571.2 | 9.407 | 6.633
x2 = 0.2563 | – | 1031.17 | 1024.49 | – | 1603.2 | 1582.3 | 8.114 | 5.732
x2 = 0.35 | – | 1030.98 | 1024.2 | – | 1618.2 | 1594.8 | 6.986 | 4.946
x2 = 0.4555 | – | 1030.32 | 1023.41 | – | 1635.8 | 1611.1 | 5.721 | 4.065
x2 = 0.5 | – | 1029.79 | 1022.84 | 1667 | 1642.1 | 1616.8 | 5.192 | 3.696
x2 = 0.5548 | 1035.46 | 1028.83 | 1021.85 | 1674.1 | 1649.1 | 1623.9 | 4.547 | 3.247
x2 = 0.6522 | 1032.48 | 1025.94 | 1019 | 1682 | 1657.8 | 1634.1 | 3.436 | 2.473
x2 = 0.7553 | 1026.64 | 1020.39 | 1013.69 | 1683 | 1661.1 | 1639 | 2.346 | 1.715
x2 = 0.8522 | 1017.23 | 1011.49 | 1005.25 | 1666.1 | 1651.2 | 1632 | 1.456 | 1.096
x2 = 0.9085 | 1009.22 | 1003.89 | 998.04 | 1639.2 | 1630 | 1616 | 1.024 | 0.797
x2 = 0.9147 | 1008.19 | 1002.92 | 997.1 | 1635.3 | 1626.2 | 1613.2 | 0.981 | 0.767
x2 = 0.9255 | 1006.32 | 1001.14 | 995.41 | 1625.9 | 1620.2 | 1608.2 | 0.909 | 0.717
x2 = 0.935 | 1004.59 | 999.49 | 993.83 | 1617.9 | 1613.2 | 1603.1 | 0.848 | 0.675
x2 = 0.9548 | 1000.71 | 995.78 | 990.28 | 1598.1 | 1597.2 | 1591.1 | 0.729 | 0.593
x2 = 0.9556 | 1000.54 | 995.62 | 990.13 | 1592.2 | 1596.1 | 1591.3 | 0.725 | 0.59
x2 = 0.9602 | 999.58 | 994.7 | 989.24 | 1580.1 | 1591.8 | 1587.1 | 0.699 | 0.572
x2 = 0.97 | 997.45 | 992.65 | 987.28 | 1566.1 | 1582.1 | 1579.9 | 0.646 | 0.536
x2 = 0.9801 | 995.14 | 990.44 | 985.14 | 1552.1 | 1571.1 | 1571 | 0.594 | 0.501
x2 = 0.9897 | 992.82 | 988.21 | 982.99 | 1549.9 | 1559.2 | 1562 | 0.549 | 0.469
x2 = 0.9921 | 992.23 | 987.63 | 982.43 | 1548.1 | 1556.2 | 1559.1 | 0.538 | 0.462
x2 = 0.9951 | 991.47 | 986.91 | 981.73 | 1543.2 | 1552.2 | 1556 | 0.524 | 0.453
